Experimental data as given in US10954196B2, “Method for producing 5-hydroxy-1H-imidazole-4 carboxamide 3/4 hydrate” (FUJIFILM Corporation, priority 2017, dated 2021).

How the values were obtained:
[1] = Test Example 3: coloring stability during storage (unwashed product); type: physicochemical; settings: light shielding, 60° C., 75% relative humidity, hydrate; for Color difference (ΔE): before vs after storage for 5 days, spectrophotometric color difference meter, reflection method; for Tone: visually observed after storage for 5 days, air atmosphere
[2] = Test Example 1: test of coloring stability during storage (washed product); type: physicochemical; settings: visually observed after storage for 5 days, air atmosphere, light shielding, 60° C., 75% relative humidity, hydrate
Procedure: About 1 g of the test substance was placed in a storage bag formed by stacking two 0.04 mm-thick polyethylene bags, sealed in each polyethylene bag, and stored for 5 days in an air atmosphere under the conditions of light shielding, 60° C., and 75% relative humidity. The tone of the test substance after the test was visually observed. In addition, a change in the color of the crystal before and after the test was measured with a spectrophotometric color difference meter to determine the color difference. Colorimeter: spectrophotometric color difference meter SE2000 manufactured by Nippon Denshoku Industries Co., Ltd. Measurement method: reflection method

[3] = as disclosed in Test Example 1 and Test Example 2 of WO2009/035168A; cited from earlier work

SMILES	Color difference (ΔE) [1]	Tone [1]	Tone [2]	Coloring stability (color change) [3]
NC(=O)c1nc[nH]c1O.O [Comparative Example 1, 5-hydroxy-1H-imidazole-4-carboxamide•¾ hydrate, reference compound]	62.4	Black blue		
NC(=O)c1nc[nH]c1O.O [Comparative Example 2, 5-hydroxy-1H-imidazole-4-carboxamide•¾ hydrate, reference compound]	51.4	Black blue		
NC(=O)c1nc[nH]c1O.O [Example 2, 5-hydroxy-1H-imidazole-4-carboxamide•¾ hydrate]	3.1	White	White	
NC(=O)c1nc[nH]c1O.O [Example 3, 5-hydroxy-1H-imidazole-4-carboxamide•¾ hydrate]	1.1	White	White	
NC(=O)c1nc[nH]c1O.O [Example 4, 5-hydroxy-1H-imidazole-4-carboxamide•¾ hydrate]	2.3	White	White	
NC(=O)c1nc[nH]c1O.O [Example 5, 5-hydroxy-1H-imidazole-4-carboxamide•¾ hydrate]	4.1	White	White	
NC(=O)c1nc[nH]c1O.O [Example 7, 5-hydroxy-1H-imidazole-4-carboxamide•¾ hydrate]	1.0	White	White	
NC(=O)c1nc[nH]c1O.O [Example 8, 5-hydroxy-1H-imidazole-4-carboxamide•¾ hydrate]	1.4	White	White	
NC(=O)c1nc[nH]c1O.O [Example 9, 5-hydroxy-1H-imidazole-4-carboxamide•¾ hydrate]	0.9	White	White	
NC(=O)c1nc[nH]c1O.O [Example 10, 5-hydroxy-1H-imidazole-4-carboxamide•¾ hydrate]	2.2	White	White	
NC(=O)c1nc[nH]c1O.O [Example 11, 5-hydroxy-1H-imidazole-4-carboxamide•¾ hydrate]	1.6	White	White	
NC(=O)c1nc[nH]c1O.O [Example 12, 5-hydroxy-1H-imidazole-4-carboxamide•¾ hydrate]		White	White	
NC(=O)c1nc[nH]c1O [compound A, 5-Hydroxy-1H-imidazole-4-carboxamide]				changed color to indigo blue or blue
Cl.NC(=O)c1nc[nH]c1O [hydrochloride of the compound A]				stable
